Source: article PMC3119039 (2011)

Target: Cdk2^as (Homo sapiens, UniProt P24941, F80G)
Experiment: histone H1 kinase assay with [γ-32P]ATP, purified Cdk2/cyclin A
Assay type: biochemical

IC50: ~3 nM
Structure (SMILES): Cc1cccc(Cc2nn(C(C)(C)C)c3ncnc(N)c23)c1 [3-MB-PP1]
